Earlier results, collected in US11478001B2, “Methods of administering a pre-operative carbohydrate-rich beverage composition” (ClearFast Inc., priority 2014, dated 2022).

Details: short-term oral administration

Q: Which safety and tolerability does the source give for `NC(=O)NCCC[C@H](N)C(=O)O` [L-citrulline] here?
A: safe and well tolerated
